Test results published in ChEMBL document CHEMBL3870348, “Discovery of a new isomannide-based peptidomimetic synthetized by Ugi multicomponent reaction as human tissue kallikrein 1 inhibitor” (Bioorg Med Chem Lett, 2017).
Activity calls are given as the source filed them. The calls are words filed in the database; no cut-off is given here.

Key:
[1] = target: T1, Kallikrein-7 (Homo sapiens, UniProt P49862); test: Inhibition of recombinant human KLK7 expressed in baculovirus/insect cell expression system at 100 uM using Abz-KLYSSKQ-EDDnp peptide as substrate preincubated for 5 mins followed by substrate addition by FRET assay
Target sequence in this assay (P49862 30-253 limits assumed): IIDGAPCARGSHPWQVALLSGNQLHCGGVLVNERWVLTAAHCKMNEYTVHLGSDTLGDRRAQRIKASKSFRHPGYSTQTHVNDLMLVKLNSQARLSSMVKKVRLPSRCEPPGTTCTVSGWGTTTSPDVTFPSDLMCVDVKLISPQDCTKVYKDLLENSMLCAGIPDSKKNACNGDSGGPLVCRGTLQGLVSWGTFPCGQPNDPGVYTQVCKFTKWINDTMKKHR

[2] = target: T2, Kallikrein-1 (Homo sapiens, UniProt P06870); test: Inhibition of recombinant human KLK1 expressed in baculovirus/insect cell expression system using Abz-KLRSSKQ-EDDnp peptide as substrate preincubated for 5 mins followed by substrate addition by FRET assay
Target sequence in this assay (P06870 whole entry): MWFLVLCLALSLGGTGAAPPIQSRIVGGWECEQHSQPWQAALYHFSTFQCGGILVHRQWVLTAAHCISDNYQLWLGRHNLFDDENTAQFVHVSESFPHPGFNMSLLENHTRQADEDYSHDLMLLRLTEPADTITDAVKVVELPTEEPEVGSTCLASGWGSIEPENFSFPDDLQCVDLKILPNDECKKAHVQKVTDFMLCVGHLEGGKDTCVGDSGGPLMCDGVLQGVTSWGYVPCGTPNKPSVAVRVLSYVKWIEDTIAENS

[3] = target: T1, Kallikrein-7; test: Inhibition of recombinant human KLK7 expressed in baculovirus/insect cell expression system using Abz-KLYSSKQ-EDDnp peptide as substrate preincubated for 5 mins followed by substrate addition by FRET assay
Target sequence in this assay (P49862 whole entry): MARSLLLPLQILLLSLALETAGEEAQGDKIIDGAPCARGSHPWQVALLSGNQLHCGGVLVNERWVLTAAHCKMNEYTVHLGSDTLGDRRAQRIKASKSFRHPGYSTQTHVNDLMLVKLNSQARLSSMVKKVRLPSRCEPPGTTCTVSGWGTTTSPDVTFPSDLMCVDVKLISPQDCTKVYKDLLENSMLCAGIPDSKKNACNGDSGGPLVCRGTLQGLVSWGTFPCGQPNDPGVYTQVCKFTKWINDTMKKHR

[4] = target: T2, Kallikrein-1; test: Inhibition of recombinant human KLK1 expressed in baculovirus/insect cell expression system at 100 uM using Abz-KLRSSKQ-EDDnp peptide as substrate preincubated for 5 mins followed by substrate addition by FRET assay
Target sequence in this assay (P06870 25-262 limits assumed): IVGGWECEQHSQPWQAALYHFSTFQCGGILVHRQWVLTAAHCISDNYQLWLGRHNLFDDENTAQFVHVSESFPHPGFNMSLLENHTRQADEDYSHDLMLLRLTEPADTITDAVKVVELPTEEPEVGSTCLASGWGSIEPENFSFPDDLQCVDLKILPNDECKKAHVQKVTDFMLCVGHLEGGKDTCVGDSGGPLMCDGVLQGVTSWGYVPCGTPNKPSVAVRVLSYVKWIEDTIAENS

[5] = target: T2, Kallikrein-1; test: Competitive inhibition of recombinant human KLK1 expressed in baculovirus/insect cell expression system using Abz-KLRSSKQ-EDDnp peptide as substrate by Dixon plot analysis
Target sequence in this assay (P06870 whole entry): as the sequence (P06870 whole entry) above

[6] = target: T2, Kallikrein-1; test: Reversible competitive inhibition of recombinant human KLK1 expressed in baculovirus/insect cell expression system using Abz-KLRSSKQ-EDDnp peptide as substrate at 2 to 8 uM by Lineweaver-Burk plot analysis
Target sequence in this assay (P06870 25-262 limits assumed): as the sequence (P06870 25-262 limits assumed) above

Row | Structure (SMILES) | inhibition [1] | IC50 [2] | IC50 [3] | inhibition [4] | Ki [5] | inhibition [6]
1 | COc1ccc(CC(=O)N([C@H]2CO[C@H]3[C@@H]2OC[C@H]3OCc2ccccc2)C(C)(C)C(=O)NC2CCCCC2)cc1 | Active | 125 µM | 272 µM | Active |  | 
2 | CC(C)(C(=O)NC1CCCCC1)N(C(=O)Cc1ccc(O)cc1)[C@H]1CO[C@H]2[C@@H]1OC[C@H]2OCc1ccccc1 | Active | 4 µM | 249 µM | Active | 3.1 µM | Active
3 | CC(C)(C(=O)NC1CCCCC1)N(C(=O)Cc1ccc(O)cc1)[C@H]1CO[C@H]2[C@@H]1OC[C@@H]2N(C(=O)Cc1ccc(O)cc1)C(C)(C)C(=O)NC1CCCCC1 | Active | 12.6 µM | 133 µM | Active |  | 
4 | CC(C)(C(=O)NC1CCCCC1)N(C(=O)c1ccccc1)[C@H]1CO[C@H]2[C@@H]1OC[C@H]2OCc1ccccc1 | Active | 400 µM | 572 µM | Active |  | 
5 | CC(C)(C(=O)NC1CCCCC1)N(C(=O)Cc1ccc(F)cc1)[C@H]1CO[C@H]2[C@@H]1OC[C@H]2OCc1ccccc1 | Active | 221 µM | 185 µM | Active |  | 
